Biological target: T315I Abl kinase domain
Assay: not given
Set-up: method as in PMID 17804707
Settings: experimental value, PDB ID 2v7a, CASF-2016; cited from earlier work

Compound | pKi
CO[C@@H](C(=O)N1Cc2[nH]nc(NC(=O)c3ccc(N4CCN(C)CC4)cc3)c2C1)c1ccccc1 [2v7a] | 8.3

Biological target: HSP90
Assay: not given
Set-up: method as in CASF-2016
Settings: HSP90 ligand in CASF-2016, reference structure for docking; ref CASF-2016; cited from earlier work

Compound | pKi
CCN(CC)C(=O)c1ccc(O)c(OC)c1 [2XDL] | 3.10

Biological target: T1, HSP90 (9-236) (Homo sapiens, UniProt P07900)
T1 construct: HSP90 (9‐236) was cross‐linked on the surface of the Series S Sensor Chip CM5
Assay: Surface plasmon resonance (SPR) measurement of Ki on immobilised HSP90 (9-236)
Format: binding
Settings: Biacore S200, HSP90 (9-236) on CM5 chip, 1 × PBS with 5% DMSO
Text: Next, we performed docking on HSP90 against the ChemBridge DIVERSet‐EXP library, which contains 50,000 small molecules that cover a diverse pharmacophore space. The docked conformers were obtained using Autodock Vina, a widely used open‐source docking software.^[ [16], [60] ^] The reference protein‐ligand structure (PDB ID: 2xdl) was chosen from the test set, CASF‐2016, to identify the binding pocket. Then, the docked poses were used to score and rank the molecules based on the Dynaformer predictions. After that, the top‐ranked compounds were filtered and visually inspected for prioritization, following the approach and criteria described in the literature^[ [7], [61] ^] (see Experimental Section for details). To ensure the fairness of prioritization, we created a pool consisting of molecules among the top 10% from both Dynaformer and the original scoring function in Autodock Vina. From the pool, 20 molecules were chosen without knowing their rankings. Finally, surface plasmon resonance (SPR) experiments were conducted for each of the 20 molecules to measure the inhibition constant K i . In total, 12 of the 20 molecules had measurable binding affinities.
Finally, the binding affinities of the above 20 molecules were experimentally validated. Surface plasmon resonance (SPR) measurements were performed by the Biacore S200 instrument (GE Healthcare Life Sciences). HSP90 (9‐236) was cross‐linked on the surface of the Series S Sensor Chip CM5 (GE Healthcare) at pH 4.0 by an amine coupling kit with 1‐ethyl‐(3‐dimethylaminopropyl)‐carbodiimide hydrochloride (EDC) and NHS. Experiments were performed in a running buffer (1 × PBS with 5% DMSO). Each compound was serially diluted by a factor of two in the running buffer. The compound solution flowed through the surface of the chip at a flow rate of […]. Sensorgrams were analyzed and generated by Biacore Evaluation Software.

Compound | Ki [µM]
Cc1cccc(C(=O)Nc2ccc3c(c2)OCCO3)c1[N+](=O)[O-] [compound 7] | 6.9
Cc1nn(-c2nc3ccccc3[nH]2)c2c1C(=O)CC(c1ccccc1O)C2 (stereo not shown) [compound 10] | 70
CCCC(=O)N1CCN(c2ccc(NC(=O)c3cccc(C)c3OC)cc2)CC1 [compound 11] | 98
O=c1[nH]c(=O)c2c(-c3cccc4ccccc34)ccnc2[nH]1 [compound 8] | 10
Cc1ccc(-c2nc3nc4ccccc4nc3n2CC2CCCO2)cc1 (stereo not shown) [compound 9] | 68.6

Results, then the compound that gave them:

Ki [µM] | Compound
2.5 | Cc1ccc(Cn2c(C)c(C)n3c4c(=O)[nH]c(=O)n(C)c4nc23)cc1 [compound 4]
4.5 | O=C(Nc1ccccc1)C1CC(=O)N(c2ccc3c4c(cccc24)CC3)C1 (stereo not shown) [compound 6]
0.517 | COc1cccc(C(=O)Nc2ccc(Oc3ccccc3)cc2)c1OC [compound 2]
3.97 | Nc1c(C(=O)c2ccccc2)sc2nc3c(cc12)CCCC3 [compound 5]
0.207 | CC1=NNc2nc3c(c(=O)n(Cc4c(F)cccc4Cl)c(=O)n3C)n2C1 [compound 1]

Biological target: aspartyl protease β-secretase (BACE)
Assay: not given
Set-up: method as in PMID 22468999
Settings: experimental value, PDB ID 3udh; cited from earlier work

Compound | pKi
O=C1Nc2ccccc2[C@]12CCNC2 [3udh] | 2.8

Source: PMC11516055, “From Static to Dynamic Structures: Improving Binding Affinity Prediction with Graph‐Based Deep Learning” (Advanced Science, 2024)
